Measured values published in PMC6128917, “Implications for the impairment of the rapid channel closing of Proteomonas sulcata anion channelrhodopsin 1 at high Cl^− concentrations” (Scientific Reports, 2018).

Biological target: T1, PsuACR1 (PsACR1)
T1 construct: 291 residues plus C-terminal His8 kept (299 residues in total)
Test: UV-visible absorption titration, λmax red-shift fitted with Hill equation (n = […] fixed)
Assay type: binding, Proteomonas sulcata
Details: 10 mM MOPS pH 7.0, 25 °C; ionic strength kept at 1,000 mM with Na2SO4; initial (unphotolysed) state

## Cl [Cl^−]
  Kd: 5.5 ± 1.6 mM
